Assay [1] has as its system Clostridium perfringens ATCC 13124. In kind it is cell-based. The following applies: brain heart infusion broth, pH 6.0, 30° C., 0% oxygen.
Assay [2] deals with Clostridium pasteurianum JEG2. Kind of assay: Mixed culture fermentation of Escherichia coli TG128 with Clostridium pasteurianum JEG2 (7 litre fermenters). In kind it is cell-based. The conditions noted are these: Fermenter 3, mixed culture.
Setting [3] is: 0.05% (w/v) added, 25-35 hours, pH 6.5, 37° C.

Structures are written as SMILES.

As to `CCCCCCCC(=O)OC(C)C(=O)[O-].[Na+]` (stereo not shown) [Octanoyl-lactylate], the MIC value in assay [1] is given as 0.05 % (w/v).
On to `CCCCCCCCCCCCCC(=O)O` [Tetradecanoic acid, reference compound], for which, in assay [1], the MIC value was >0.01 % (w/v).
For the compound `CCCCCCCCCCCC(=O)OC(C)C(=O)O` (stereo not shown) [Dodecanoyl-lactylate], the MIC value in assay [1] is 0.002 % (w/v).
`CCCCCCCCCCCCCCOS(=O)(=O)[O-].[Na+]` [Sodium tetradecyl sulfate, reference compound]: the MIC value in assay [1] is 0.001 % (w/v).
With `CCCCCCCCC=CCCCCCCCC(=O)OC(C)C(=O)O` (stereo not shown) [Olacta, Octadecenoyl-lactylate], the MIC value in assay [1] is listed as 0.02 % (w/v).
In the case of `CCCCCCCCCCCCCC(=O)OC(C)C(=O)O` (stereo not shown) [Tetradecanoyl-lactylate, tetradecanoyl-lactylate], the MIC value in assay [1] is given as 0.001 % (w/v). Besides, in assay [2] (0.025% (w/v) added), the “results of Fermenter 3 compared with those at 0.05% (w/v)” value was “Exactly the same results”. Besides, in assay [2] (0.05% (w/v) added), the “endospore bearing cells, microscopic examination of the culture broth” value is given as “no endospore bearing cells”; the “foam and putrid smell produced by the fermenter” value is recorded as “no foam or putrid smell”; the “impurity profile of fermentation broth compared with the Escherichia coli TG128 standard fermentation (Fermenter 1)” value was “no difference in impurity profile”; the “performance of Fermenter 3 compared with Fermenter 1 (pure culture of Escherichia coli TG128)” value is listed as “in every respect similar”. In addition, in assay [2] (setting [3]), the 2-hydroxy butyric acid was less than 0.1 g/L, the “% enantiomeric excess: (R − S)/(R + S)” value turned out to be 99.3%, the Acetic acid stood at 0.3 g/L and the Benzoic acid was less than 0.3 g/L. In assay [2] (setting [3]), this compound returned a Butyric acid of 0.1 g/L, a Citric acid of less than 0.5 g/L, an Ethanol of 0.08 g/L and a Formic acid of less than 0.2 g/L. In assay [2] (setting [3]), this compound yielded a Fumaric acid of less than 0.2 g/L, a Glycolic acid of less than 0.5 g/L, a Maleic acid of less than 0.2 g/L and a Malic acid of less than 0.5 g/L. Further, in assay [2] (setting [3]), the Oxalic acid was less than 0.2 g/L, the Propionic acid was less than 0.1 g/L, the Pyruvic acid is less than 0.1 g/L and the R-lactate stood at 81.8 g/L. Also, in assay [2] (setting [3]), the S-lactate is 0.3 g/L, the Sorbic acid is less than 0.1 g/L, the Succinic acid is less than 0.1 g/L and the glucose turned out to be 2.3 g/L. Moreover, the “% enantiomeric excess: (R − S)/(R + S)” value in assay [2] (0.05% (w/v) added, 25-35 hours, pH 6.5, 37° C., listed as tetradacanoyl-lactylate) is on record as approximately 100%.
With `CCCCCCCCCC(=O)OC(C)C(=O)O` (stereo not shown) [Decanoyl-lactylate], the MIC value in assay [1] is recorded as 0.04 % (w/v).
For the compound `CCCCCCCCCCCCCCCC(=O)OC(C)C(=O)O` (stereo not shown) [Hexadecanoyl-lactylate], the MIC value in assay [1] is 0.002 % (w/v).

The values above are taken from patent US12031171B2, “Fatty acid esters against infections in fermentations” (PURAC BIOCHEM BV, priority 2016, dated 2024).
